# Reference: the OPERA property sets (Mansouri et al. 2018)
SMILES,melting point,boiling point,log10 Henry constant (atm·m³/mol),log10 Koa,log10 vapour pressure (mmHg),ready biodegradability,log10 biodegradation half-life (days),log10 Koc (L/kg)
CC1=NNC(=O)N(/N=C/c2cccnc2)C1,217 °C,,,,,,,
CC(=O)OCC(C)C,-98.8 °C,116 °C,-3.34,3.45,1.25,readily biodegradable,,
CCCNCCO,,183 °C,,,,,,
CC(=O)CCCC(=O)O,13.5 °C,274 °C,,,,,,
O=NN1CCCC1,,214 °C,,,-1.22,,,
FC(F)(F)C(=NOCC1OCCO1)c1ccc(Cl)cc1,,,,,-3.55,,,
CN1CCc2cc3c(cc2C1)OCO3,66 °C,304 °C,,,,,,
O=C1C=CC2(CCC23C=CC(=O)O3)O1 (stereo unspecified),158 °C,,,,,,,
O=C(Cc1ccccc1)OCCc1ccccc1,26.5 °C,,,,,,,
CCCC(CCC)C(C)C,,159 °C,,,,,,
CCCCCCCCCC(C)=O,15 °C,232 °C,-4.2,,-1.38,,,
CCCC(C)(C)c1ccccc1,,206 °C,,,,,,
O=C(Nc1ccc(O)cc1)c1ccccc1O,179 °C,,,,,,,
Brc1ccc2ncccc2c1,24 °C,281 °C,,,,,,
OC(c1ccccc1)c1ccc(Cl)cc1 (stereo unspecified),60.8 °C,,,,,,,
BrCCCc1ccccc1,,220 °C,,,,,,
O=C(c1ccccc1)c1ccc(Cl)cc1,77.5 °C,332 °C,,,,,,
COC1=CC(=O)O[C@@H](/C=C/c2ccccc2)C1,106 °C,,,,,,,
CC#N,-43.8 °C,81.6 °C,-4.46,2.31,1.95,readily biodegradable,,
CCCOCOCCC,-97.3 °C,140 °C,,,,,,
Fc1c(Cl)c(F)c(Cl)c(F)c1Cl,,198 °C,,,,,,
CC(C)(C#N)N=NC(C)(C)C#N,,,,,,not readily biodegradable,,

SMILES,melting point,boiling point,log10 Henry constant (atm·m³/mol),log10 Koa,log10 vapour pressure (mmHg),ready biodegradability,log10 biodegradation half-life (days),log10 Koc (L/kg)
CCCCCl,-123 °C,78.6 °C,-1.78,2.72,2.01,not readily biodegradable,,
CCC(C(=O)O)C1(O)CCC(c2ccccc2)CC1 (stereo unspecified),157 °C,,,,,,,
CC(C)(CC(=O)O)c1ccccc1,60 °C,,,,,,,
COP(=S)(OC)Oc1ccc([N+](=O)[O-])c(Cl)c1,21 °C,,,,-5.4,,,
CC(C)C(O)C(C)(C)CO (stereo unspecified),51.5 °C,232 °C,,,-2.35,readily biodegradable,,
ClC(Cl)=CBr,-88.5 °C,108 °C,,,,,,
Cc1cc(N)c(S(=O)(=O)O)cc1Cl,,,,,,not readily biodegradable,,
CCOS(=O)(=O)Cl,,152 °C,,,,,,
C1CC2C3CCC(C3)C2C1 (stereo unspecified),,,,,,,3,
CCNC(=O)/C=C(C)/C=C/C=C(C)/C=C/c1c(C)cc(OC)c(C)c1C,180 °C,,,,,,,
ClCCCCBr,,175 °C,,,,,,
CCN(CC)c1ccc(N)cc1,,261 °C,,,,,,
C=C1CC[C@@]2(O)[C@H]3Cc4ccc(O)c5c4[C@@]2(CCN3CC2CC2)[C@H]1O5,189 °C,,,,,,,
C=C(C)C1CC=C(CO)CC1 (stereo unspecified),,244 °C,,,,,,
O=C(Nc1cccc2ccccc12)Nc1cccc2ccccc12,296 °C,,,,,,,
Nc1cc2ccccc2c2ccccc12,138 °C,,,,,,,
c1ccoc1,-85.6 °C,31.5 °C,,,2.78,not readily biodegradable,,
C[C@]12C=CC(=O)C=C1[C@@H](F)C[C@@H]1[C@@H]2[C@@H](O)C[C@@]2(C)[C@H]1CC[C@]2(O)C(=O)CO,210 °C,,,,,,,
CC(=O)NCC(=O)O,206 °C,,,,,,,
c1ccc2c(-c3cccc4ccccc34)cccc2c1,160 °C,,,,,,,
Cc1ccccc1C(=O)c1ccccc1,,308 °C,,,,,,
CCC[C@@H](O)CC,,135 °C,,,0.682,,,

SMILES,melting point,boiling point,log10 Henry constant (atm·m³/mol),log10 Koa,log10 vapour pressure (mmHg),ready biodegradability,log10 biodegradation half-life (days),log10 Koc (L/kg)
Cc1cccc(N)c1C,,222 °C,,,-1.12,not readily biodegradable,,
CC(Br)CBr (stereo unspecified),-55.5 °C,142 °C,,,0.894,,,
C=C(C)[C@]1(O)C2OC(=O)C1[C@]1(O)[C@H]3O[C@H]3[C@]3(CO3)[C@]1(C)C2O (stereo partly specified),225 °C,,,,,,,
Nc1ccc(-c2ccc(N)cc2)cc1,120 °C,401 °C,,,,,,3.46
O=NN1CCC[C@H]1c1cccnc1,47 °C,,,,,,,
CC(=O)[C@@]1(O)CC[C@H]2[C@@H]3CCC4=CC(=O)CC[C@]4(C)[C@H]3CC[C@@]21C,222 °C,,,,,,,
ClCc1cccc(Cl)c1,,216 °C,,,,,,
O=C(OCc1ccco1)c1ccco1,27.5 °C,,,,,,,
CCOc1ccc(C)cc1,,188 °C,,,,,,
NCCN1CCNCC1,,220 °C,,,,not readily biodegradable,,
C=CCCCCCCCCCCCC,-12 °C,233 °C,,,-1.82,,,
C[C@]1(O)CC[C@H]2[C@@H]3CCC4=CC(=O)CC[C@]4(C)[C@@]3(F)[C@@H](O)C[C@@]21C,270 °C,,,,,,,
COc1ccc2c(c1)CC[C@@H]1[C@@H]2CC[C@]2(C)C(=O)[C@H](Cl)C[C@@H]12,180 °C,,,,,,,
CCC(C)(O)CC(C)C (stereo unspecified),,152 °C,,,,,,
O=S(=O)(Cl)c1cccc2ccccc12,68 °C,,,,,,,
C1N2CN3CN1CN(C2)C3,,,,,-2.4,readily biodegradable,,
CC(C)CCCC(C)N (stereo unspecified),,155 °C,,,,,,
COCCOc1cnc(NS(=O)(=O)c2ccccc2)nc1,153 °C,,,,,,,
CC(C)(C)OC(=O)C1(S(=O)(=O)c2ccc(Cl)cc2)CC1,110 °C,,,,,,,
CCO,-114 °C,78.2 °C,-5.3,,1.77,readily biodegradable,,
